For assay [1], the system named is A. baumannii. The assay is described as follows: microbe, parasite or virus in culture. The conditions noted are these: CAMHB; for MIC: MCPs read at 80% inhibition. The procedure: MIC determinations were performed using the broth microdilution method and in line with CLSI guidelines M07 and M100 (refs. [37],[38]). Bacterial inocula were prepared by diluting a 0.5 McFarland suspension in CAMHB or lysogeny broth (LB) specifically for A. baylyi isolates. […] MIC values of all of the tested antibiotics were read as the lowest compound concentration inhibiting bacterial growth by naked eye or beyond which the OD600 ceased to decrease.

Another assay has as its system A. baumannii ACC01073. The assay is described as follows: Neutropaenic mouse lung infection (pneumonia) model. It is filed as in vivo. The conditions noted are these: 120 mg/kg/day q12h. As to the method: An intramuscular inoculation of a bacterial suspension of approximately 10^6 CFU per thigh was used to induce the infection. Treatment started 2 h after infection. […] Thigh bacterial burden was determined after 24 h of treatment. In the pneumonia model, an intratracheal inoculation of approximately 10^7 CFU per lung was used to induce the infection. Treatment started 2 h after infection. […] Lung bacterial burden was determined after 24 h treatment. Standard of care antibiotic was tested at a single dose in both infection models. GraphPad Prism 8 was used for graphical presentation and to analyse data.

Assay [2] has as its system A. baumannii. The assay is described as follows: Neutropaenic mouse thigh infection model. Particulars: 24 h. It is filed as in vivo. As to the method: An intramuscular inoculation of a bacterial suspension of approximately 10^6 CFU per thigh was used to induce the infection. Treatment started 2 h after infection. […] In the pneumonia model, an intratracheal inoculation of approximately 10^7 CFU per lung was used to induce the infection. Treatment started 2 h after infection. […] Standard of care antibiotic was tested at a single dose in both infection models. GraphPad Prism 8 was used for graphical presentation and to analyse data.

Values after ≈ are worked out from the molar mass of the structure shown.

For `CN(C)c1cc(NC(=O)CNC(C)(C)C)c(O)c2c1C[C@H]1C[C@H]3[C@H](N(C)C)C(O)=C(C(N)=O)C(=O)[C@@]3(O)C(O)=C1C2=O` [tigecycline, reference compound], in the assay with A. baumannii [1] (Acinetobacter baumannii, 129 clinical isolates), the MIC90 was 8 µg/mL (≈ 13.7 µM). The MIC came to 2 µg/mL (≈ 3.41 µM) in the assay with A. baumannii [1] (Acinetobacter baumannii, ACC00445); 0.5 µg/mL (≈ 0.854 µM) against A. baumannii [1] (Acinetobacter baumannii, ACC00535); 4 µg/mL (≈ 6.83 µM) in the assay with A. baumannii [1] (Acinetobacter baumannii, ACC01073); 2 µg/mL (≈ 3.41 µM) against A. baumannii [1] (Acinetobacter baumannii, ACC01077); 4 µg/mL (≈ 6.83 µM) against A. baumannii [1] (Acinetobacter baumannii, ACC01085 / AR0307); 0.5 µg/mL (≈ 0.854 µM) in the assay with A. baumannii [1] (Acinetobacter baumannii, ATCC17978, ATCC 17978). For the same compound, the MIC against A. baumannii [1] (Acinetobacter baumannii, ATCC19606, ATCC 19606) was 1 µg/mL (≈ 1.71 µM); with A. baumannii [1] (Acinetobacter baumannii, ATCCBAA747, ATCC BAA-747) it was 0.25 µg/mL (≈ 0.427 µM); against A. baumannii [1] (Acinetobacter baumannii, ROB08701), 1 µg/mL (≈ 1.71 µM); in the assay on A. baumannii [1] (Acinetobacter baumannii, ROB08702) it was 4 µg/mL (≈ 6.83 µM); in the assay with A. baumannii [1] (Acinetobacter baumannii, ROB08703) it was 16 µg/mL (≈ 27.3 µM); in the assay with A. baumannii [1] (Acinetobacter baumannii, ROB08704) it was 0.5 µg/mL (≈ 0.854 µM). In addition, the MIC in the assay with A. baumannii [1] (Acinetobacter baumannii, ROB08705) came to 1 µg/mL (≈ 1.71 µM); in the assay with A. baumannii [1] (Acinetobacter baumannii, ROB08706) it was 8 µg/mL (≈ 13.7 µM); in the assay with A. baumannii [1] (Acinetobacter baumannii, ROB08707), 0.5 µg/mL (≈ 0.854 µM); in the assay on A. baumannii [1] (Acinetobacter baumannii, ROB08708), 1 µg/mL (≈ 1.71 µM); in the assay on A. baumannii [1] (Acinetobacter baumannii, ROB08709) it was 1 µg/mL (≈ 1.71 µM); in the assay on A. baumannii [1] (Acinetobacter baumannii, ROB08710) it was 1 µg/mL (≈ 1.71 µM). The “ΔLog CFU/lungs vs A/0h” value in the assay on A. baumannii ACC01073 came to 0.70. In addition, in the assay with A. baumannii ACC01073 (n = 6), the “CFU/lungs, average” value was 4.23E+08. The “Log CFU/lungs, average (bacterial load)” value in the assay with A. baumannii ACC01073 (n = 6) turned out to be 8.39.
Turning to `C[C@@H](O)[C@H]1C(=O)N2C(C(=O)O)=C(S[C@@H]3CN[C@H](C(=O)N(C)C)C3)[C@H](C)[C@H]12` [MRP], the “log CFU/thigh, average” value in the assay on A. baumannii [2] (A. baumannii ACC00535 (APV00535), neutropenic mice, MERO 100 mg/kg, average of 8 samples) stood at 8.52 log CFU/thigh. In addition, the “delta 2 hr; Δ log (vs. veh 2hrs)” value in the assay with A. baumannii [2] (A. baumannii ACC00535 (APV00535), neutropenic mice, MERO 100 mg/kg, change of average log CFU/thigh vs start of therapy (2 h)) was 2.37.
On to colistin [reference compound], for which the MIC against A. baumannii [1] (ACC00445) is 0.25 µg/mL; in the assay with A. baumannii [1] (ACC00535) it was 0.5 µg/mL; in the assay with A. baumannii [1] (ACC01073) it was over 16 µg/mL; against A. baumannii [1] (ACC01077), 16 µg/mL; in the assay on A. baumannii [1] (ACC01085 / AR0307), 4 µg/mL; against A. baumannii [1] (ATCC 17978) it was 0.25 µg/mL. Moreover, the MIC in the assay on A. baumannii [1] (ATCC 19606) was 0.5 µg/mL; in the assay on A. baumannii [1] (ATCC BAA-747) it was 0.5 µg/mL; against A. baumannii [1] (ROB08701), 1 µg/mL; against A. baumannii [1] (ROB08702), 2 µg/mL; in the assay on A. baumannii [1] (ROB08703), 0.5 µg/mL; in the assay on A. baumannii [1] (ROB08704) it was 2 µg/mL. In addition, the MIC amounted to 0.5 µg/mL against A. baumannii [1] (ROB08705); 0.25 µg/mL in the assay on A. baumannii [1] (ROB08706); 2 µg/mL against A. baumannii [1] (ROB08707); 0.25 µg/mL against A. baumannii [1] (ROB08708); 1 µg/mL against A. baumannii [1] (ROB08709); 2 µg/mL in the assay on A. baumannii [1] (ROB08710). Further, the “Bacterial Load (average)” value in the assay on A. baumannii [2] (A. baumannii ACC01085, neutropenic mice, 60 mg/kg/day q8h, summary table, same as average Log CFU/Thigh) amounted to 3.39.

Source of the values: article PMC10794144, “A novel antibiotic class targeting the lipopolysaccharide transporter” (Nature, 2024).
